Test results reported in patent US20240287139A1, “A NOVEL COMPOUND ACTING AGAINST A SELECT GROUP OF BACTERIA” (priority 2021, published 2024).
In brackets after ≈: the same amount, converted by molar mass. Read-outs that look alike come from different tables or passages of the source. *1 amine or outer side, *2 acyl side, *3 side chain or, on linkers, in order; H or OH if unused. Where a SMILES comes first, the peptide text is derived from it. Bridges are numbered along the chain shown (N, C = ends). [ ]: non-standard residue; d: D form. The star is where a group is joined. ξ: configuration not given here. ξThr(3R)(O-yl) = C[C@@H](O[*:3])C(N[*:1])C(=O)[*:2]; βAsp = O=C(O)[C@H](CC(=O)[*:2])N[*:1]; His(π-Me) = Cn1cncc1C[C@H](N)C(=O)O; For = O=C*

What was measured:
[1] = system: Mycobacterium tuberculosis H37Rv mc^26020; test: microbe, parasite or virus in culture; assay type: cell-based
[2] = system: Clostridium perfringens KLE 2523; test: microbe, parasite or virus in culture; assay type: cell-based; details: KLE2523
Escherichia coli ΔtolC = test: microbe, parasite or virus in culture; assay type: cell-based
E. coli ATCC 25922 = test: Septicemia model, survival; assay type: in vivo, mice; details: 1 h after infection
Method: The inventors next tested the compound of Formula IV in a simple model of septicemia infection with E. coli to evaluate its potential for activity in vivo. […] Mice were infected with E. coli ATCC25922 intraperitoneally for 1 hour followed by intraperitoneal administration of the compound of Formula IV.
Animal study was performed at Northeastern University, approved by Northeastern IACUC, and was performed according to institutional animal care and policies. Experiments were not randomized nor blinded, as it was not deemed necessary. Female CD-1 mice (20-25 g, experimentally naive, 6 weeks old) from Charles River were used for all studies. The compound of Formula IV was tested in a septicemia model against E. coli ATCC 25922. Mice were infected with 0.5 ml of E. coli ATCC 25922 suspension in BHI with 5% mucin (1×10^6 to 5×10^6) via intraperitoneal injection. This dose achieves >83% mortality within 24 h after infection. At 1 h after infection, mice were treated by the compound of Formula IV from 10 mg kg^−1 to 100 mg kg^−1 by intraperitoneal injection. Infection control mice were treated with 50 mg kg^−1 gentamicin as positive control. Survival was monitored for 120 h.

FaDu [3] = system: FaDu
[4] = system: Escherichia coli ATCC25922; test: microbe, parasite or virus in culture; assay type: cell-based
MtbGyrase [5] = target: T1, MtbGyrase (Mycobacterium tuberculosis, UniProt P9WG45+P9WG47); test: biochemical; design: species or system M. tuberculosis; details: 20 nM MtbGyrase
[6] = system: Mycobacterium smegmatis mc^2155; test: microbe, parasite or virus in culture; assay type: cell-based; details: Mycolicibacterium smegmatis
[7] = system: Mycobacterium tuberculosis H37Rv mc^26020 mCherry; test: microbe, parasite or virus in culture; assay type: cell-based
[8] = system: Salmonella enterica KLE 2601; test: microbe, parasite or virus in culture; assay type: cell-based; details: KLE2601; Salmonella enterica KLE 2601, anaerobic conditions, human stool isolate
[9] = system: Mycobacterium tuberculosis H37Rv mc^26020 ΔbacA; test: microbe, parasite or virus in culture; assay type: cell-based
MtbGyrase [10] = target: T1, MtbGyrase; assay type: biochemical, M. tuberculosis; details: 100 μM compound, 0-20 nM enzyme
[11] = system: Pseudomonas aeruginosa PA01; test: microbe, parasite or virus in culture; assay type: cell-based
E. coli gyrase = E. coli gyrase (Escherichia coli, UniProt P0AES4+P0AES6); assay type: biochemical; details: 100 μM compound
Escherichia coli BW25113 = test: microbe, parasite or virus in culture; assay type: cell-based
[12] = system: Streptococcus parasanguinis KLE 2509; test: microbe, parasite or virus in culture; assay type: cell-based; details: KLE2509; Streptococcus parasanguinis KLE 2509, anaerobic conditions, human stool isolate
[13] = system: M. tuberculosis H37Rv mc^26020; test: Time-dependent killing; assay type: cell-based; details: 10×MIC
[14] = system: Klebsiella pneumoniae ATCC 700603; test: microbe, parasite or virus in culture; assay type: cell-based; details: ATCC700603
Escherichia coli WO153 = test: microbe, parasite or virus in culture; assay type: cell-based
E. coli WO153 = test: Macromolecule incorporation assay; assay type: cell-based; details: 8×MIC
Method: Incorporation of ^14C-thymidine (DNA), ^14C-uridine (RNA), ^14C-L-amino acid mixture (protein), ^14C-acetic acid (fatty acid) and ^14C-acetyl-glucosamine (peptidoglycan) was determined in cells treated with 8×MIC of the compound of Formula IV (grey bars). Ciprofloxacin (8×MIC), rifampicin (8×MIC), chloramphenicol (8×MIC), triclosan (8×MIC) and fosfomycin (8×MIC) were used as controls (white bars). There were n=3 biologically independent samples.
Macromolecular synthesis assay against DNA, RNA, protein and fatty acid were analyzed by ImQuest BioSciences Inc. (MD, USA) with E. coli WO153 cells.

HepG2 [15] = test: cells; details: Homo sapiens, HepG2, read-out: Human cell line (IC50)
wild type E. coli = test: microbe, parasite or virus in culture; assay type: cell-based; details: Escherichia coli
M. tuberculosis = test: Microscopy, cell elongation; assay type: cell-based; details: 10×MIC, 48 hours of treatment
[16] = system: Bacteroides fragilis KLE 2244; test: microbe, parasite or virus in culture; assay type: cell-based; details: KLE2244; Bacteroides fragilis KLE 2244, anaerobic conditions, human stool isolate
[17] = system: Mycobacterium abscessus ATCC 19977; test: microbe, parasite or virus in culture; assay type: cell-based; details: Mycobacteroides abscessus, ATCC19977
Escherichia coli ΔSbmA = test: microbe, parasite or virus in culture; assay type: cell-based; details: Keio collection mutant
[18] = system: Bacteroides stercoris KLE 2537; test: microbe, parasite or virus in culture; assay type: cell-based; details: KLE2537; Bacteroides stercoris KLE 2537, anaerobic conditions, human stool isolate
[19] = system: Acinetobacter baumannii ATCC 17978; test: microbe, parasite or virus in culture; assay type: cell-based; details: ATCC17978
Escherichia coli MG1655 = test: microbe, parasite or virus in culture; assay type: cell-based
HEK293 [20] = test: cells; details: Homo sapiens, HEK293, read-out: Human cell line (IC50)
[21] = system: Veillonella ratti KLE 2365; test: microbe, parasite or virus in culture; assay type: cell-based; details: KLE2365; Veillonella ratti KLE 2365, anaerobic conditions, human stool isolate
[22] = system: Lactobacillus reuteri LTH5448; test: microbe, parasite or virus in culture; assay type: cell-based; details: Limosilactobacillus reuteri; Lactobacillus reuteri LTH5448, anaerobic conditions
[23] = assay type: in vivo, mouse; details: intraperitoneally at 100 mg kg^−1, observed for 24 hours
[24] = system: Lactobacillus paracasei KLE 2504; test: microbe, parasite or virus in culture; assay type: cell-based; details: Lacticaseibacillus paracasei, KLE2504; Lactobacillus paracasei KLE 2504, anaerobic conditions, human stool isolate
[25] = system: Enterococcus faecalis KLE 2341; test: microbe, parasite or virus in culture; assay type: cell-based; details: KLE2341; Enterococcus faecalis KLE 2341, anaerobic conditions, human stool isolate
FaDu [26] = test: cells; details: Homo sapiens, read-out: Human cell line (IC50)
[27] = system: commensal bacteria including Lactobacillus sp. and Bacteroides sp.; assay type: cell-based
[28] = system: Staphylococcus aureus HG003; test: microbe, parasite or virus in culture; assay type: cell-based
HEK293 [29] = system: HEK293
HepG2 [30] = system: HepG2
[31] = target: E. coli topoisomerase IV (topo IV) (Escherichia coli, UniProt P0AFI2+P20083); assay type: biochemical; details: 100 μM compound; strong cleavage visible at 5 nM enzyme
MtbGyrase [32] = target: T1, MtbGyrase; test: DNA-stimulated ATPase assay (NADH-coupled); details: 250 nM gyrase, 100 μM drug
physchem = details: water
[33] = Mycobacterium tuberculosis, M. tuberculosis H37Rv mc^26020, read-out: MIC

T1 sequence (P9WG45 whole entry, looked up): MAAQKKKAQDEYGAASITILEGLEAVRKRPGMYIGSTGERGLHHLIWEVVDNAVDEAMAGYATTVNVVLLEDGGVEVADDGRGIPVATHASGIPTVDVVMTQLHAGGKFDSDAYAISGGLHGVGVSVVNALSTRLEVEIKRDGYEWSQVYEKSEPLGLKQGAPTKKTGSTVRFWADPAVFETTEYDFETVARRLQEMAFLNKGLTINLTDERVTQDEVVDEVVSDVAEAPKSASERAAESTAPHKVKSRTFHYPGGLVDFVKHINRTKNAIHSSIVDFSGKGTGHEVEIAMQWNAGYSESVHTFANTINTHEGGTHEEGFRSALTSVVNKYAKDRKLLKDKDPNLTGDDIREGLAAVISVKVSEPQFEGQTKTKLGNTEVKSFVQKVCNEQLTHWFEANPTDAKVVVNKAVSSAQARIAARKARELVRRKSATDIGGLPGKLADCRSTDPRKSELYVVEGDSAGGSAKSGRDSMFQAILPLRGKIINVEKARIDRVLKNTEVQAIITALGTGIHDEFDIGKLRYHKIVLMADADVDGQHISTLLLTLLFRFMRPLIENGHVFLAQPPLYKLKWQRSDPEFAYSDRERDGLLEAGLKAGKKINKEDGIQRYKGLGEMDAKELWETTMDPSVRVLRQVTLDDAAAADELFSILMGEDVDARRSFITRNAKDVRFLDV
T1 sequence (P9WG47 whole entry, looked up): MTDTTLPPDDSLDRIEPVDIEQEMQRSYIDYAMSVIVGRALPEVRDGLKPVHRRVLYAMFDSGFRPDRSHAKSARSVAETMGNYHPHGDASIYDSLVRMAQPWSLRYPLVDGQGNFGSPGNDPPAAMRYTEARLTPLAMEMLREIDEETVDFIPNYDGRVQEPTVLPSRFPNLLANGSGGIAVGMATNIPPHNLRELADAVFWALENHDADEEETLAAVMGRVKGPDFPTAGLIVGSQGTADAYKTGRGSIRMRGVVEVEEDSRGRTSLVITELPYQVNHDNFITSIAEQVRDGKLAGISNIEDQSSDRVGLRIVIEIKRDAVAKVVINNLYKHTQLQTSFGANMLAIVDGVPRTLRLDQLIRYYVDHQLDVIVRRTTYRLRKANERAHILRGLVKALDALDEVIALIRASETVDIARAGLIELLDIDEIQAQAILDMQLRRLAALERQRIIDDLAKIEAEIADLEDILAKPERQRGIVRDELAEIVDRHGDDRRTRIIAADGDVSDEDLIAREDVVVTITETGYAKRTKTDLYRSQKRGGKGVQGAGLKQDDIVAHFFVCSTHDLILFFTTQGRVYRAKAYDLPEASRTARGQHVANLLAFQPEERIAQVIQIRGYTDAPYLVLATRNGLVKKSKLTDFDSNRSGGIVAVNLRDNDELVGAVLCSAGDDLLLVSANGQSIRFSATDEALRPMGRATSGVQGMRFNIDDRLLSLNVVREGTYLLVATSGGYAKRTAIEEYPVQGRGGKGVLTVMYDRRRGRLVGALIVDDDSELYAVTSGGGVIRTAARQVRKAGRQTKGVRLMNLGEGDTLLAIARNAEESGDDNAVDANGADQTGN
Sequence of E. coli gyrase (P0AES4 whole entry, one chain of several): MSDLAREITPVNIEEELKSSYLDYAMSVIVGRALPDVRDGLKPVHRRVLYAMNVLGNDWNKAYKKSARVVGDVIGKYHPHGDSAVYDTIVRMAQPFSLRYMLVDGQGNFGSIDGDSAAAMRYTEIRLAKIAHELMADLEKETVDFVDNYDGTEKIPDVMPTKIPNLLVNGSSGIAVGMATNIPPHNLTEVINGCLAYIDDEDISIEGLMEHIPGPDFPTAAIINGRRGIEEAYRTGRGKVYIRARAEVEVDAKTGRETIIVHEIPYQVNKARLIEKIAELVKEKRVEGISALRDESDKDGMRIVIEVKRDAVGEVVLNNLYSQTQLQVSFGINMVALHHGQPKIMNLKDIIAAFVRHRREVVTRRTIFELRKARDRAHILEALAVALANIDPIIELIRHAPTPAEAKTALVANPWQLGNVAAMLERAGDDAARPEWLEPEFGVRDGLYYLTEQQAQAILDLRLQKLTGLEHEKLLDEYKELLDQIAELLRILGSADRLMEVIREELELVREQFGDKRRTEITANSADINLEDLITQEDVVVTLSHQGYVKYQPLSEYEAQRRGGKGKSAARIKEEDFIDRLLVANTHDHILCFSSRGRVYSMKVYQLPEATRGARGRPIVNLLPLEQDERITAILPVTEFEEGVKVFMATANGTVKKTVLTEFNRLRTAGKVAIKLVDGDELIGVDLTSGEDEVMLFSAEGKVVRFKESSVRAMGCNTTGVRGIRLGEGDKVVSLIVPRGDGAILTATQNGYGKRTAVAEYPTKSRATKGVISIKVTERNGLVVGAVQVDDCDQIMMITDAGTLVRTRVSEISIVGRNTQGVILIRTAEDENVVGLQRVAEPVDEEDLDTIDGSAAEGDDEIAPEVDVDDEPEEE
Sequence of E. coli topoisomerase IV (topo IV) (P20083 whole entry): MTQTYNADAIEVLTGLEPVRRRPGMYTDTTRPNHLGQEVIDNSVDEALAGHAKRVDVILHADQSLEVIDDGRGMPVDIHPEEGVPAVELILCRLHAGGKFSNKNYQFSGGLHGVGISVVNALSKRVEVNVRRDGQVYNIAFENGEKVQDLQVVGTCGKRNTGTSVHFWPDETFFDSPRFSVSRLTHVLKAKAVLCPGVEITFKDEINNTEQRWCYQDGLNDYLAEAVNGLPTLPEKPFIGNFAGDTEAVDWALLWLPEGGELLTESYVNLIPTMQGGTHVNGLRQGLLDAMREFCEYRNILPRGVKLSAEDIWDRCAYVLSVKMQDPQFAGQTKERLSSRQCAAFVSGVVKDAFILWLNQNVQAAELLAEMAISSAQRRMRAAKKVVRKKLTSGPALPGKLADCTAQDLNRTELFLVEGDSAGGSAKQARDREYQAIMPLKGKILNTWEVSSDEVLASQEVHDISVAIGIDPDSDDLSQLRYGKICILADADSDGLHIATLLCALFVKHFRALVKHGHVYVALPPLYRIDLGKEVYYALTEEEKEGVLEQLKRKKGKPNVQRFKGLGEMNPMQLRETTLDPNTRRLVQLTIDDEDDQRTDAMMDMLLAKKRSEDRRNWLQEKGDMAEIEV
Sequence of E. coli topoisomerase IV (topo IV) (P0AFI2 whole entry): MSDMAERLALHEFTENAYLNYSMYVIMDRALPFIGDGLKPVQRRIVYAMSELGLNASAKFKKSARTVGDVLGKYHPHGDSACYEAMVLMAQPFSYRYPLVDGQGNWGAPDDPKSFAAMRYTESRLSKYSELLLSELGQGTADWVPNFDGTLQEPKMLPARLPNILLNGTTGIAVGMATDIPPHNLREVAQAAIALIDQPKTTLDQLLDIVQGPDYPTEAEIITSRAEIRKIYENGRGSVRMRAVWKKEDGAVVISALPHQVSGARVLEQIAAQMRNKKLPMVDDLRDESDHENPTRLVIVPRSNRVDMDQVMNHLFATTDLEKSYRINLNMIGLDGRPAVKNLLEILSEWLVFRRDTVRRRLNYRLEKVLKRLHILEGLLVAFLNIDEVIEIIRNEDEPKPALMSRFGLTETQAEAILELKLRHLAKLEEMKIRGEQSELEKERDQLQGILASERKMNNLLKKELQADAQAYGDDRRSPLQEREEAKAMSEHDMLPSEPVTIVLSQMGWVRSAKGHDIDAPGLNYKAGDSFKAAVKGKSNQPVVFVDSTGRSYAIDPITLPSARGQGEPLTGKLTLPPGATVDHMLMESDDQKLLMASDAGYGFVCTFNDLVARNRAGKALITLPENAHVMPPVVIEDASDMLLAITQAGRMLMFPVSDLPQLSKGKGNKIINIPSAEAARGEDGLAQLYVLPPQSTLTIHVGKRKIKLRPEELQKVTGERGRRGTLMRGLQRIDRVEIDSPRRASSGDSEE

COc1c(N2C[C@@H]3CCCN[C@@H]3C2)c(F)cc2c(=O)c(C(=O)O)cn(C3CC3)c12 [Moxifloxacin, reference compound]
MIC [1, 33]: 0.125 µg/mL (≈ 0.311 µM)

C[C@H]1OC(=O)C[C@@H](C(=O)O)NC(=O)[C@H](CO)NC(=O)[C@@H](CCCNC(=N)N)NC(=O)CNC(=O)[C@H](Cc2ccccc2)NC(=O)[C@@H](CO)NC(=O)C[C@@H](C(=O)O)NC(=O)[C@H](Cc2cncn2C)NC(=O)C1NC(=O)[C@@H](CCCNC(=N)N)NC(=O)[C@@H](NC(=O)[C@H](Cc1c[nH]c2ccccc12)NC=O)[C@@H](C)O (stereo partly drawn) [compound of Formula IV] (For-WT[dR][ξThr(3R)(O-yl)][His(π-Me)][βAsp][dS]FG[dR]SD-OH; ester 4-12)
MIC [2]: 64 µg/mL
MIC of tolC deletion mutant, times higher as compared to E. coli WO153 (Escherichia coli ΔtolC): 4 times
MIC of tolC deletion mutant, times lower than in the wild type (Escherichia coli ΔtolC): 64 times
MIC (Escherichia coli ΔtolC; Escherichia coli ΔtolC, Keio collection mutant): 0.25 µg/mL
MIC (Escherichia coli ΔtolC; Escherichia coli, E. coli tolC deletion mutant, read-out: MIC): 0.25 µg/mL
efficacy, septicemia infection with E. coli ATCC25922 (E. coli ATCC 25922; 100 mg kg^−1 dose intraperitoneal): completely protected
efficacy, septicemia infection with E. coli ATCC25922 (E. coli ATCC 25922; single dose of 25 mg kg^−1 intraperitoneal): significant efficacy
toxicity against human cell line (FaDu [3]): no toxicity
MIC [4]: 8 µg/mL
DNA cleavage in the absence of ATP (MtbGyrase [5]; absence of ATP): little to no cleavage
IC50 (MtbGyrase [5]; in the presence of ATP): ~1 µM
MIC [6]: 8 µg/mL
MIC [7]: 0.0625 µg/mL
MIC [8]: 128 µg/mL
MIC [9]: 16 µg/mL
DNA cleavage by MtbGyrase (MtbGyrase [10]): induced DNA cleavage
supercoiling activity of MtbGyrase (MtbGyrase [10]): inhibited the supercoiling activity
MIC [11]: > 128 µg/mL
inhibition of DNA supercoiling by gyrase compared with supercoil relaxation by topo IV (E. coli gyrase): more potent inhibitor of DNA supercoiling by gyrase
DNA cleavage by E. coli gyrase (E. coli gyrase; strong cleavage visible at 5 nM enzyme): stimulated DNA cleavage
MIC (Escherichia coli BW25113): 16 µg/mL
MIC [12]: > 128 µg/mL
killing of exponentially growing M. tuberculosis ([13]; exponential cells): highly bactericidal
killing of stationary M. tuberculosis ([13]; stationary cells): highly bactericidal
MIC [14]: 32 µg/mL
MIC (Escherichia coli WO153; Escherichia coli WO153): 0.0625 µg/mL
MIC (Escherichia coli WO153; Escherichia coli, E. coli WO153, compromised penetration barrier, read-out: MIC): 0.0625 µg/mL
effect on DNA synthesis (^14C-thymidine incorporation) (E. coli WO153): inhibits DNA synthesis
effect on RNA, protein and fatty acid synthesis (E. coli WO153): less of an effect
IC50 (HepG2 [15]): > 128 µg/mL
MIC (wild type E. coli): 16 µg/mL
cell length compared to nontreated cells (M. tuberculosis): approximately 2 times
MIC [16]: 64 µg/mL
MIC [17]: 16 µg/mL
MIC (Escherichia coli ΔSbmA): 128 µg/mL
MIC [18]: > 128 µg/mL
MIC [19]: 128 µg/mL
MIC ([1]; Mycobacterium tuberculosis H37Rv mc^26020): 0.25 µg/mL
MIC [1, 33]: 0.25 µg/mL
MIC (Escherichia coli MG1655): 16 µg/mL
IC50 (HEK293 [20]): > 128 µg/mL
MIC [21]: > 128 µg/mL
MIC [22]: > 128 µg/mL
toxicity in a mouse, survival [23]: no indications of toxicity
MIC [24]: > 128 µg/mL
MIC [25]: > 128 µg/mL
IC50 (FaDu [26]): > 128 µg/mL
activity against commensal bacteria [27]: no activity
MIC [28]: 128 µg/mL
toxicity against human cell line (HEK293 [29]): no toxicity
toxicity against human cell line (HepG2 [30]): no toxicity
DNA cleavage by E. coli topo IV [31]: stimulated DNA cleavage
overall rate (vmax) of ATPase activity (MtbGyrase [32]): 45±7.2 ATP·s^−1 per enzyme
solubility (physchem): > 40 mg/mL
